Assay results from the supplement of paper PMC11208160.

Test: recombinant UMI read abundance after kanamycin selection (control-corrected) (log10(CPM+1)); higher = more efficient recombination; extreme values may be limits of the assay; sequences stand for … in AGTGCAGAGAAAATCGGCCAGTTTTCTCTGCCTGCAGTCCGCATGCCGTGGGACCCCTTGGGTTCTAACCTGTTGCCTAGATTTATGCAGCGGACTGCCTTTCTCCCAAAGTGATAAACCGG…AGGTTGGTTTCACT; site = the 11-nt donor
Method in brief: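 In a pooled Escherichia coli screen for the IS621 bridge recombinase, donor and donor-binding-loop pairs were each placed with a 12-nt UMI on a plasmid bearing a promoterless kanamycin gene. This library was co-electroporated with a target plasmid encoding a fixed target and T7-inducible recombinase, and cells were plated either on IPTG (0.07 mM) plus kanamycin or without selection, in two replicates each. Recombinant UMIs were PCR-amplified across the donor–target junction and sequenced, and counts were converted to CPM, averaged over replicates, scaled by control-derived factors and reported as log10(CPM+1).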
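Also: IS621 bridge recombinase in Escherichia coli cells against a fixed T5 target plasmid.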

Sequence | recombinant UMI read abundance (log10)
GTTGTTCCATGGACCGGTTTTCCCGGTAATCCGTATTTGGT (site GATGTTCCTAC) | 0.0185
GTTGTTCCATGGACCGGTTTTCCCGGTAATCCGTATTTGGT (site GCTGTTCCTAC) | 0.00506
GTTGTTCCATGGACCGGTTTTCCCGGTAATCCGTATTTGGT (site GGTGTTCCTAC) | 0.0704
GTTGTTCCATGGACCGGTTTTCCCGGTAATCCGTATTTGGT (site GTAGTTCCTAC) | 0.00238
GTTGTTCCATGGACCGGTTTTCCCGGTAATCCGTATTTGGT (site GTCGTTCCTAC) | 0.005
GTTGTTCCATGGACCGGTTTTCCCGGTAATCCGTATTTGGT (site GTGGTTCCTAC) | 0.508
GTTGTTCCATGGACCGGTTTTCCCGGTAATCCGTATTTGGT (site GTTATTCCTAC) | 0.00427
GTTGTTCCATGGACCGGTTTTCCCGGTAATCCGTATTTGGT (site GTTCTTCCTAC) | 0.0166
GTTGTTCCATGGACCGGTTTTCCCGGTAATCCGTATTTGGT (site GTTGATCCTAC) | 0.00419
GTTGTTCCATGGACCGGTTTTCCCGGTAATCCGTATTTGGT (site GTTGCTCCTAC) | 0.00968
GTTGTTCCATGGACCGGTTTTCCCGGTAATCCGTATTTGGT (site GTTGGTCCTAC) | 0.00325
GTTGTTCCATGGACCGGTTTTCCCGGTAATCCGTATTTGGT (site GTTGTACCTAC) | 0.00624
GTTGTTCCATGGACCGGTTTTCCCGGTAATCCGTATTTGGT (site GTTGTCCCTAC) | 0.00355
GTTGTTCCATGGACCGGTTTTCCCGGTAATCCGTATTTGGT (site GTTGTGCCTAC) | 0.03
GTTGTTCCATGGACCGGTTTTCCCGGTAATCCGTATTTGGT (site GTTGTTACTAC) | 0.00857
GTTGTTCCATGGACCGGTTTTCCCGGTAATCCGTATTTGGT (site GTTGTTCCTAA) | 0.00913
GTTGTTCCATGGACCGGTTTTCCCGGTAATCCGTATTTGGT (site GTTGTTCCTAC) | 0.00461
GTTGTTCCATGGACCGGTTTTCCCGGTAATCCGTATTTGGT (site GTTGTTCCTAG) | 0
GTTGTTCCATGGACCGGTTTTCCCGGTAATCCGTATTTGGT (site GTTGTTCCTAT) | 0.00563
GTTGTTCCATGGACCGGTTTTCCCGGTAATCCGTATTTGGT (site GTTGTTCCTCC) | 0.0221
GTTGTTCCATGGACCGGTTTTCCCGGTAATCCGTATTTGGT (site GTTGTTCCTGC) | 0.388
GTTGTTCCATGGACCGGTTTTCCCGGTAATCCGTATTTGGT (site GTTGTTCCTTC) | 0.00361
GTTGTTCCATGGACCGGTTTTCCCGGTAATCCGTATTTGGT (site GTTGTTGCTAC) | 0.0845
GTTGTTCCATGGACCGGTTTTCCCGGTAATCCGTATTTGGT (site GTTGTTTCTAC) | 0
GTTGTTCCATGGACCGGTTTTCCCGGTAATCCGTATTTGGT (site GTTTTTCCTAC) | 0

Sequence | recombinant UMI read abundance (log10)
GTTGTTCCATGGACCGGTTTTCCCGGTAATCCGTATTTGGT (site TTTGTTCCTAC) | 0.0162
GTTGTTCCATGGACCGGTTTTCCCGGTAATCCGTATTTGTT (site GTTGTTCCTAA) | 0.42
GTTGTTCCATGGACCGGTTTTCCCGGTAATCCGTATTTGTT (site GTTGTTCCTAC) | 0
GTTGTTCCATGGACCGGTTTTCCCGGTAATCCGTATTTGTT (site GTTGTTCCTAG) | 0
GTTGTTCCATGGACCGGTTTTCCCGGTAATCCGTATTTGTT (site GTTGTTCCTAT) | 0
GTTTCAACATGGACCGGTTTTCCCGGTAATCCGTATTTGAC (site GTTTCAACTGT) | 0.631
GTTTCAGCATGGACCGGTTTTCCCGGTAATCCGTATTTGTG (site GTTTCAGCTCA) | 0.537
GTTTCTGCATGGACCGGTTTTCCCGGTAATCCGTATTTGAG (site GTTTCTGCTCT) | 0.45
TAAAGGCCATGGACCGGTTTTCCCGGTAATCCGTATTTGTA (site TAAAGACCTTA) | 0.00739
TAAAGGCCATGGACCGGTTTTCCCGGTAATCCGTATTTGTA (site TAAAGCCCTTA) | 0.00872
TAAAGGCCATGGACCGGTTTTCCCGGTAATCCGTATTTGTA (site TAAAGGCCTTA) | 0.544
TAAAGGCCATGGACCGGTTTTCCCGGTAATCCGTATTTGTA (site TAAAGTCCTTA) | 0.12
TAACAACCATGGACCGGTTTTCCCGGTAATCCGTATTTGTT (site TAACAACCTAA) | 0.06
TAACGAACATGGACCGGTTTTCCCGGTAATCCGTATTTGCG (site TAACGAACTCG) | 1.63
TAACGAGCATGGACCGGTTTTCCCGGTAATCCGTATTTGGG (site TAAAGAGCTCC) | 0.00891
TAACGAGCATGGACCGGTTTTCCCGGTAATCCGTATTTGGG (site TAACGAGCTCC) | 0.146
TAACGAGCATGGACCGGTTTTCCCGGTAATCCGTATTTGGG (site TAAGGAGCTCC) | 0.143
TAACGAGCATGGACCGGTTTTCCCGGTAATCCGTATTTGGG (site TAATGAGCTCC) | 0.0081
TAACGCACATGGACCGGTTTTCCCGGTAATCCGTATTTGGT (site TAACGCACTAC) | 0.736
TAACGGTCATGGACCGGTTTTCCCGGTAATCCGTATTTGGC (site TAACGGTCTGC) | 2.67
TAACGTTCATGGACCGGTTTTCCCGGTAATCCGTATTTGTA (site TAACGTTCTTA) | 1.16
TAAGCACCATGGACCGGTTTTCCCGGTAATCCGTATTTGAA (site TAAGCACCTTT) | 0.0176
TAAGCCACATGGACCGGTTTTCCCGGTAATCCGTATTTGAC (site TAAGCCACTGT) | 2.78
TAAGCCGCATGGACCGGTTTTCCCGGTAATCCGTATTTGGG (site TAAGCCGCTCC) | 0.0145
TAAGCGCCATGGACCGGTTTTCCCGGTAATCCGTATTTGTG (site AAAGCGCCTCA) | 0.0246

Sequence | recombinant UMI read abundance (log10)
TAAGCGCCATGGACCGGTTTTCCCGGTAATCCGTATTTGTG (site CAAGCGCCTCA) | 0.0975
TAAGCGCCATGGACCGGTTTTCCCGGTAATCCGTATTTGTG (site GAAGCGCCTCA) | 0.032
TAAGCGCCATGGACCGGTTTTCCCGGTAATCCGTATTTGTG (site TAAGCGCCTCA) | 0.248
TAAGCTCCATGGACCGGTTTTCCCGGTAATCCGTATTTGCG (site TAAGCTCCTCG) | 0.303
TAAGGGGCATGGACCGGTTTTCCCGGTAATCCGTATTTGGC (site TAAGGGGCTGC) | 2.41
TAAGTGTCATGGACCGGTTTTCCCGGTAATCCGTATTTGCA (site TAAGTGTCTTG) | 3.32
TAATACTCATGGACCGGTTTTCCCGGTAATCCGTATTTGCA (site TAATACTCTTG) | 2.63
TAATACTCATGGACCGGTTTTCCCGGTAATCCGTATTTGCA (site TCATACTCTTG) | 1.69
TAATACTCATGGACCGGTTTTCCCGGTAATCCGTATTTGCA (site TGATACTCTTG) | 1.6
TAATACTCATGGACCGGTTTTCCCGGTAATCCGTATTTGCA (site TTATACTCTTG) | 1.68
TAATAGACATGGACCGGTTTTCCCGGTAATCCGTATTTGGC (site TAATAGACTGC) | 2.02
TAATCAGCATGGACCGGTTTTCCCGGTAATCCGTATTTGGG (site TAATAAGCTCC) | 0.00976
TAATCAGCATGGACCGGTTTTCCCGGTAATCCGTATTTGGG (site TAATCAGCTCC) | 0.0129
TAATCAGCATGGACCGGTTTTCCCGGTAATCCGTATTTGGG (site TAATGAGCTCC) | 0.00426
TAATCAGCATGGACCGGTTTTCCCGGTAATCCGTATTTGGG (site TAATTAGCTCC) | 0.0124
TAATGAGCATGGACCGGTTTTCCCGGTAATCCGTATTTGGT (site TAATGAGCTAC) | 0.862
TAATGAGCATGGACCGGTTTTCCCGGTAATCCGTATTTGGT (site TAATGAGCTCC) | 0.00749
TAATGAGCATGGACCGGTTTTCCCGGTAATCCGTATTTGGT (site TAATGAGCTGC) | 0
TAATGAGCATGGACCGGTTTTCCCGGTAATCCGTATTTGGT (site TAATGAGCTTC) | 0.0263
TAATGATCATGGACCGGTTTTCCCGGTAATCCGTATTTGGG (site TAATGAACTCC) | 0.0159
TAATGATCATGGACCGGTTTTCCCGGTAATCCGTATTTGGG (site TAATGACCTCC) | 0.00916
TAATGATCATGGACCGGTTTTCCCGGTAATCCGTATTTGGG (site TAATGAGCTCC) | 0.0135
TAATGATCATGGACCGGTTTTCCCGGTAATCCGTATTTGGG (site TAATGATCTCC) | 0.594
TAATGGGCATGGACCGGTTTTCCCGGTAATCCGTATTTGGG (site TAATGAGCTCC) | 0.0138
TAATGGGCATGGACCGGTTTTCCCGGTAATCCGTATTTGGG (site TAATGCGCTCC) | 0.0166
